Data from PMC9851200, “Multiparameter phenotypic screening for endogenous TFEB and TFE3 translocation identifies novel chemical series modulating lysosome function” (Autophagy, 2022).

Tests used:
Format in all cases: binding
[1] = target: T1, kinases (KINOMEscan panel) (Homo sapiens, UniProt P43403); conditions: NEW KINOMEscan
T1 sequence (P43403 1-619): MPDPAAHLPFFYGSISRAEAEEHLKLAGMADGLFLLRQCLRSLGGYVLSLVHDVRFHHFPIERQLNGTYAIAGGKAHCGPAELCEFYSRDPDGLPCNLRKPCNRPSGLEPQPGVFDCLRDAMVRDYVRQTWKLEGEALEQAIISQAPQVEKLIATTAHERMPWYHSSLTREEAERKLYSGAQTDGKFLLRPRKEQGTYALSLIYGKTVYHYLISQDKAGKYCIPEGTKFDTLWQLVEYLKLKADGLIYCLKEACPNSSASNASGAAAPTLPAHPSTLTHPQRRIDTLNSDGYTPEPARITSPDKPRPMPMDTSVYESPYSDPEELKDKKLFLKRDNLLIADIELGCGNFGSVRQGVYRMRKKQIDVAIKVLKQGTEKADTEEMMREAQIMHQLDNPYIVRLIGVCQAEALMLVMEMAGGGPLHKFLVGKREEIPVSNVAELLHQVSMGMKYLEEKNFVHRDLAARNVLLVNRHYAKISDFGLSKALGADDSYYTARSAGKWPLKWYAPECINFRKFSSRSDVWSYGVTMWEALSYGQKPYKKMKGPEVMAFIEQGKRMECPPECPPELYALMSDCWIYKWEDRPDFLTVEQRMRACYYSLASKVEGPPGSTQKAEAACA

[2] = target: kinases (KINOMEscan panel) (Homo sapiens, UniProt P10721, V559D); conditions: kinase KIT(V559D); NEW KINOMEscan
Chain of kinases (KINOMEscan panel) (Homo sapiens, UniProt P10721, V559D) (P10721 26-976 V559D): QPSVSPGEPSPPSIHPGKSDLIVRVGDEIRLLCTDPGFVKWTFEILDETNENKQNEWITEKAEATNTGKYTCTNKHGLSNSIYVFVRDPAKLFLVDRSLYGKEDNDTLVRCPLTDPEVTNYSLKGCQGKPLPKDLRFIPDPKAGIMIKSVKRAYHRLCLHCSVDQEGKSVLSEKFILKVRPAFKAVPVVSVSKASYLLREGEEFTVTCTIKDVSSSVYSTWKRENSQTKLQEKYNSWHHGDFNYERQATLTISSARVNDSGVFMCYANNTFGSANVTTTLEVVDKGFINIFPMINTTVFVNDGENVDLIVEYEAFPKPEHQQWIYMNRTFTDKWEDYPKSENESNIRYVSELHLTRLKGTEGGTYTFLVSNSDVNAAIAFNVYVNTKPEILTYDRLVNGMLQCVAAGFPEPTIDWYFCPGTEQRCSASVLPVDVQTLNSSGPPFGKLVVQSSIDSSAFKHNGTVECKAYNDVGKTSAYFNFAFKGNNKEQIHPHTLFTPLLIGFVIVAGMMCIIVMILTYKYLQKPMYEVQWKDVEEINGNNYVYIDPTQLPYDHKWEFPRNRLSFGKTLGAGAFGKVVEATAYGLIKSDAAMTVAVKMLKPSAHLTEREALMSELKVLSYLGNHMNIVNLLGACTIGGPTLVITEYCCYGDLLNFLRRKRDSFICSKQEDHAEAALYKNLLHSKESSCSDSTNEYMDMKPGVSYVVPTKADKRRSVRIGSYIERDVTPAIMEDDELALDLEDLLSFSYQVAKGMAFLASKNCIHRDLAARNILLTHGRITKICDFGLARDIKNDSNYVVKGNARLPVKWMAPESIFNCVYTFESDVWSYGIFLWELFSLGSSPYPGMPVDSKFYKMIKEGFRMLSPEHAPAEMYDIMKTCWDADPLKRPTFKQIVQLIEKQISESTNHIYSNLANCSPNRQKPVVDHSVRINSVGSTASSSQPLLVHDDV

[3] = target: T2, kinases (KINOMEscan panel) (Homo sapiens, UniProt Q8WTQ7); conditions: kinase GRK7; NEW KINOMEscan
T2 sequence (Q8WTQ7 1-553): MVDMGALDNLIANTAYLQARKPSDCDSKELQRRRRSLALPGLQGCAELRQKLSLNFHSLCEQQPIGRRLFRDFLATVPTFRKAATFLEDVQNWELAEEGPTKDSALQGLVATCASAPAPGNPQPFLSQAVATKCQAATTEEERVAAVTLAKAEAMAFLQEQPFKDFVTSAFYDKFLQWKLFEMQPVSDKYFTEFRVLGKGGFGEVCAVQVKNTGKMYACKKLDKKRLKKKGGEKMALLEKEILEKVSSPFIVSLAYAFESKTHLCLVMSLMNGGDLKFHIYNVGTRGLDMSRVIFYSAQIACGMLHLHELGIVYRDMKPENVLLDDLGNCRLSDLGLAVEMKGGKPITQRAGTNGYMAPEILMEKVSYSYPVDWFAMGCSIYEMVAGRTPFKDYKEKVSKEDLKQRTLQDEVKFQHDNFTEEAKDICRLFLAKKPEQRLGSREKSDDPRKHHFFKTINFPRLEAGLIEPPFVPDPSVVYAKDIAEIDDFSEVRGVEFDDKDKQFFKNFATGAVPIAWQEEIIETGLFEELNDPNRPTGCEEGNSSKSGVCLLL

[4] = target: T3, kinases (KINOMEscan panel) (Homo sapiens, UniProt Q9UQB9); conditions: AURKC; NEW KINOMEscan
T3 sequence (Q9UQB9 1-309): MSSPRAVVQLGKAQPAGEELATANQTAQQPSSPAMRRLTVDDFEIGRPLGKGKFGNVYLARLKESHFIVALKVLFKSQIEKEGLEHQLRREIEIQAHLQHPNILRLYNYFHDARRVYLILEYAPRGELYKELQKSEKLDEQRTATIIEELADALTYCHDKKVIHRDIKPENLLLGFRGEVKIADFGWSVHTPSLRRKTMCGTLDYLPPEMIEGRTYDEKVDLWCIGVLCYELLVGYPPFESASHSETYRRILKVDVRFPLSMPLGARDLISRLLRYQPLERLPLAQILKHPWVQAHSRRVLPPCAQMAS

[5] = target: T4, kinases (KINOMEscan panel) (Homo sapiens, UniProt P29323); conditions: EPHB2; NEW KINOMEscan
T4 sequence (P29323 19-1055): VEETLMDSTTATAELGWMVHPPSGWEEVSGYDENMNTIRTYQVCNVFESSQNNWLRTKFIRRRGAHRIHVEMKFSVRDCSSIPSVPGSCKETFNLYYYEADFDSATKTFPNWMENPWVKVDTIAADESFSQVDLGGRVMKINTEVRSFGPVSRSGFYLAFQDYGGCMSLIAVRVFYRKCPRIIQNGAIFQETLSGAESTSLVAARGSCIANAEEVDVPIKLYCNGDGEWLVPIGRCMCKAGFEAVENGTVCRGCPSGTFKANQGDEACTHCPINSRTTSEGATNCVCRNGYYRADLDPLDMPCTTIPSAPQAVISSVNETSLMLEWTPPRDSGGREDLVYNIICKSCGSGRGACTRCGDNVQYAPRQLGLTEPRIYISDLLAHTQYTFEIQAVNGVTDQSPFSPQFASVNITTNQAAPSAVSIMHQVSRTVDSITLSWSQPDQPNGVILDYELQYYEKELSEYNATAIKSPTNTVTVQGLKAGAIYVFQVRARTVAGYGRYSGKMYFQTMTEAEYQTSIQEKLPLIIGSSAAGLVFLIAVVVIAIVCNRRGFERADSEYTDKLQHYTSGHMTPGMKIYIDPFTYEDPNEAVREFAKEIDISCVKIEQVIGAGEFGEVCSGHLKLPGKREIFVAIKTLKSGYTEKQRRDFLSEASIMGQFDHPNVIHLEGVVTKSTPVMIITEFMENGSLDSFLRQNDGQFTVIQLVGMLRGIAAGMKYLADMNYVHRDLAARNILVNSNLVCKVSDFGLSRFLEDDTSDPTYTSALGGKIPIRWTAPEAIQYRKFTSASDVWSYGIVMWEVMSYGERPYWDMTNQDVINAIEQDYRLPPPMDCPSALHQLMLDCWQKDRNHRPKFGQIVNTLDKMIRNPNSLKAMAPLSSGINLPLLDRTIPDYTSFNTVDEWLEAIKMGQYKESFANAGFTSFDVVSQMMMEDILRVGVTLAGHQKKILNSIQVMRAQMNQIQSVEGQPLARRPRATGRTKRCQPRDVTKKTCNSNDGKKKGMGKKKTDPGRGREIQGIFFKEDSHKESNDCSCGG

Structure (SMILES) | KINOMEscan ZAP70 [1] | KINOMEscan KIT(V559D) [2] | KINOMEscan GRK7 [3] | KINOMEscan AURKC [4] | KINOMEscan EPHB2 [5]
Cc1cccc(-c2nc(Nc3ccc4nn(C)cc4c3)c3ccccc3n2)n1 [NK167] | 14 | 15 | 0 | 0 | 12
Cc1cccc(-c2nc(N(C)c3ccc4ncsc4c3)c3ccccc3n2)n1 [NK-161] | 20 | 7 | 5 | 0 | 15
